Values quoted from earlier work in patent US6465436B2, “Method for treating alcohol intoxication and alcohol abuse” (McLean Hospital, priority 2000, dated 2002).

What was measured:
[1] = for alcohol consumption suppressing activity of herbal medicines derived from Pueraria lobata (fractionation studies): U.S. Pat. No. 5,783,189
[2] = test system: Syrian Golden hamsters
[3] = in vivo
[4] = biological target: T1, human ALDH-1 (Homo sapiens, UniProt P05091)
T1 sequence (P05091 18-517): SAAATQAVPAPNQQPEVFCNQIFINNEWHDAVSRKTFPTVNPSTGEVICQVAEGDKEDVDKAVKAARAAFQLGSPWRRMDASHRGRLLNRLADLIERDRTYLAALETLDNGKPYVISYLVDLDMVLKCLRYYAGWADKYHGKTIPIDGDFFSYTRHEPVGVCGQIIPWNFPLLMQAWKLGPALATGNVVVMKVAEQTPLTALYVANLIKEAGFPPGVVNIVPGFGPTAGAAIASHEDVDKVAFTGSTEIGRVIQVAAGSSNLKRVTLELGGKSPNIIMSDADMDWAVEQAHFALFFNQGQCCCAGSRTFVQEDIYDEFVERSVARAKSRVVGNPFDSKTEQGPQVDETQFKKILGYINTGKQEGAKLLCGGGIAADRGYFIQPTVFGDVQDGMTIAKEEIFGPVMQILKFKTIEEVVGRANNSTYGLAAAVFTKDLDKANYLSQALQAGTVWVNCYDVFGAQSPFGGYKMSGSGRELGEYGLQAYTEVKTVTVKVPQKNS

[5] = test system: ALDH

Row | SMILES | alcohol consumption suppressing activity of herbal medicines derived from Pueraria lobata (fractionation studies) [1] | alcohol intake [2] | blood alcohol levels [3] | sleep time induced by alcohol [3] | human ALDH-1 inhibition [4] | ALDH inhibition [5] | activity in suppressing alcohol intake relative to daidzin ([1]; in vivo)
1 | COc1cc(-c2coc3c([C@@H]4O[C@H](CO)[C@@H](O)[C@H](O)[C@H]4O)c(O)ccc3c2=O)ccc1O [3′-methoxypuerarin] | primarily responsible for the alcohol consumption suppressing activity | – | – | – | – | – | –
2 | O=c1c(-c2ccc(O)cc2)coc2cc(O)ccc12 [daidzein] | primarily responsible for the alcohol consumption suppressing activity | suppressed alcohol intake | decreases blood alcohol levels | shortens sleep time | potent human ALDH-1 inhibitors | – | –
3 | O=c1c(-c2ccc(O)cc2)coc2cc(O[C@@H]3O[C@H](CO)[C@@H](O)[C@H](O)[C@H]3O)ccc12 [daidzin] | primarily responsible for the alcohol consumption suppressing activity | suppressed alcohol intake | – | – | potent human ALDH-1 inhibitors | – | –
4 | O=c1c(-c2ccc(O)cc2)coc2c([C@@H]3O[C@H](CO[C@@H]4OC[C@](O)(CO)[C@H]4O)[C@@H](O)[C@H](O)[C@H]3O)c(O)ccc12 [mirificin] | primarily responsible for the alcohol consumption suppressing activity | – | – | – | – | – | –
5 | O=c1c(-c2ccc(O)cc2)coc2c([C@@H]3O[C@H](CO)[C@@H](O)[C@H](O)[C@H]3O)c(O)ccc12 [puerarin] | primarily responsible for the alcohol consumption suppressing activity | – | – | – | – | not an ALDH inhibitor | slightly less active than daidzin
